Data as given in US9492471B2, “Methods of treating a disease or disorder associated with Bruton'S Tyrosine Kinase” (Celgene Avilomics Research, Inc., priority 2013, dated 2016).
Read-outs that look alike come from different tables or passages of the source.

Tests used:
Assay in all cases: HotSpot kinase profiling
Assay type in all cases: biochemical
CDK2/cyclin A = target: T1, CDK2/cyclin A (Homo sapiens, UniProt P24941)
T1 construct: purchased Reaction Biology Corp
Outline: (§1)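 Radio-isotope P81 filtration format. Substrate + required cofactors in reaction buffer, kinase added, 2 h RT. Stop, wash with 0.1% phosphoric acid, detect. % inhibition vs DMSO; mean of duplicates where repeated.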

CDK6/cyclin D1 = target: T2, CDK6/cyclin D1 (Homo sapiens, UniProt Q00534)
T2 construct: purchased Reaction Biology Corp
T2 sequence (Q00534 whole entry): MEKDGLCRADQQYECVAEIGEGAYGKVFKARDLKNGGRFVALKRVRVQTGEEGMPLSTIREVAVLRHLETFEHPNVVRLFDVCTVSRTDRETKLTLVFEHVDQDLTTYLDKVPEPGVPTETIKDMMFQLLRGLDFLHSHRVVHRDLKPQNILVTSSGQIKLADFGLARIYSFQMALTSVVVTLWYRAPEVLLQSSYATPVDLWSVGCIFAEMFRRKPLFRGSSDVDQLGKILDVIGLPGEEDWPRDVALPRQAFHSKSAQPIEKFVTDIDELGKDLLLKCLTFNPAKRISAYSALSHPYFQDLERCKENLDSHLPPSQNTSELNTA
T2 sequence (P24385 whole entry partner): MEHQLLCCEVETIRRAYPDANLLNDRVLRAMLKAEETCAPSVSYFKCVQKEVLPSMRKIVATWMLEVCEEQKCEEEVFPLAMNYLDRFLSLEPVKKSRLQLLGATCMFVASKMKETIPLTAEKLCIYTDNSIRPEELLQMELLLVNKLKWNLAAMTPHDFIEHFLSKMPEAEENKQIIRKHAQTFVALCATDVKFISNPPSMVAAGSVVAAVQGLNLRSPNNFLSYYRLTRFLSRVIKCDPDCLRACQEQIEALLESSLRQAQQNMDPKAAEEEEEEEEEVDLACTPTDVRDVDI
Outline: as §1

EGFR = target: T3, EGFR (Homo sapiens, UniProt P00533)
T3 construct: purchased Reaction Biology Corp
T3 sequence (P00533 25-1210): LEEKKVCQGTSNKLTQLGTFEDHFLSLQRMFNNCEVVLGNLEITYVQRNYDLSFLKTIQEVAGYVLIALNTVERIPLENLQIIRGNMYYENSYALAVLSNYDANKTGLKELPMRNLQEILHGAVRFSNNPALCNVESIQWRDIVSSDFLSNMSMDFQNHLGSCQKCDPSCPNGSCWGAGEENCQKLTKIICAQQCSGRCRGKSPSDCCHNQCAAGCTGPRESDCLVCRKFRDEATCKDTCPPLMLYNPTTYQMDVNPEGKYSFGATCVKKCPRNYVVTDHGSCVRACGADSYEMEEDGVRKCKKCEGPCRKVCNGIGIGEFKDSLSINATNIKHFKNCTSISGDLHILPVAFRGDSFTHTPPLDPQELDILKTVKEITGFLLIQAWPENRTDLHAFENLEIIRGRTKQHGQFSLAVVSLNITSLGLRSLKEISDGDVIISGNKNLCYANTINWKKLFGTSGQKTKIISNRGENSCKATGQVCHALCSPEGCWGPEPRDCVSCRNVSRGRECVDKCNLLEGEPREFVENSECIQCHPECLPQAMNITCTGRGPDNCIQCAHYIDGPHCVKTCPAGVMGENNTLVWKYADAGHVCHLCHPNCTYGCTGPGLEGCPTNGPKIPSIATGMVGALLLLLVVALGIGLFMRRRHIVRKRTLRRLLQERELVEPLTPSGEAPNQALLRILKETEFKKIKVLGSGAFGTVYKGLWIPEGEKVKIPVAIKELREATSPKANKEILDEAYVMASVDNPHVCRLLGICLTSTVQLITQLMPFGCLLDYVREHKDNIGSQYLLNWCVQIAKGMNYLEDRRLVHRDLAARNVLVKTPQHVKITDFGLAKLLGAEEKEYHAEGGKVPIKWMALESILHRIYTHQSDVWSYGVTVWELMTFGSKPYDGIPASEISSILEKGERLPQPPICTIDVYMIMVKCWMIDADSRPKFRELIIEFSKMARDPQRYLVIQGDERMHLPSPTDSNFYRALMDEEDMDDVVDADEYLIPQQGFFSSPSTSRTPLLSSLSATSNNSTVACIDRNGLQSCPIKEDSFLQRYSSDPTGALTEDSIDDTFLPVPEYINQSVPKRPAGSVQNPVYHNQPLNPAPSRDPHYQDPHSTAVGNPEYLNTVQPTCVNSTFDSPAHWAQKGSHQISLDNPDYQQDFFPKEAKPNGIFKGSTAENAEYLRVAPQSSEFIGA
Outline: as §1

EPHB3 = target: T4, EPHB3 (Homo sapiens, UniProt P54753)
T4 construct: purchased Reaction Biology Corp
T4 sequence (P54753 34-998): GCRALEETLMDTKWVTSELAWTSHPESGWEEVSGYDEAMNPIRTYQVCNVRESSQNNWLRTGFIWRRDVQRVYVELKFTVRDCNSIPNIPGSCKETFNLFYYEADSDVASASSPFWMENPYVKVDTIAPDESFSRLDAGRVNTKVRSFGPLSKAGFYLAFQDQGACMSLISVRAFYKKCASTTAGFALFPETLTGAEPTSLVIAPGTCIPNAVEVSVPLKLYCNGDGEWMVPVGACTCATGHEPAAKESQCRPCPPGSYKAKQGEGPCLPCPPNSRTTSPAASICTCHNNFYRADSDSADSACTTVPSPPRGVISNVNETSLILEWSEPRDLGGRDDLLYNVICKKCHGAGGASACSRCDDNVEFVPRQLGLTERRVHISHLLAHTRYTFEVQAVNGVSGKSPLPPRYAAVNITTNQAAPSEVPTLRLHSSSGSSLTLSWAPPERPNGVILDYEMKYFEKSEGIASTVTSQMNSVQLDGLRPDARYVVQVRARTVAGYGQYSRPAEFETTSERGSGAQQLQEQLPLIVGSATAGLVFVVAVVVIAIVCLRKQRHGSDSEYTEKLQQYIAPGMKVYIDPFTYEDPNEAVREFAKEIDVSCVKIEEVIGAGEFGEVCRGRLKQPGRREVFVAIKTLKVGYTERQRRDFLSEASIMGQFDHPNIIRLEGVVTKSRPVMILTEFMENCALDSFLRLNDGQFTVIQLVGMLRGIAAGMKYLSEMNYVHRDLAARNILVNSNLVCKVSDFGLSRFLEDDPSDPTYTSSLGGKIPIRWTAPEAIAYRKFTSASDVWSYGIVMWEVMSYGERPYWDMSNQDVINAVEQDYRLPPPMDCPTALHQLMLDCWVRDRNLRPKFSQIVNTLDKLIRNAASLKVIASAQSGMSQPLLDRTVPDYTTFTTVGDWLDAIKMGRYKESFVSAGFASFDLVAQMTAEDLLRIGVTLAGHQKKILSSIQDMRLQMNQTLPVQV
Outline: as §1

MST1/STK4 = target: T5, MST1/STK4 (Homo sapiens, UniProt Q13043)
T5 construct: purchased Reaction Biology Corp
T5 sequence (Q13043 1-487): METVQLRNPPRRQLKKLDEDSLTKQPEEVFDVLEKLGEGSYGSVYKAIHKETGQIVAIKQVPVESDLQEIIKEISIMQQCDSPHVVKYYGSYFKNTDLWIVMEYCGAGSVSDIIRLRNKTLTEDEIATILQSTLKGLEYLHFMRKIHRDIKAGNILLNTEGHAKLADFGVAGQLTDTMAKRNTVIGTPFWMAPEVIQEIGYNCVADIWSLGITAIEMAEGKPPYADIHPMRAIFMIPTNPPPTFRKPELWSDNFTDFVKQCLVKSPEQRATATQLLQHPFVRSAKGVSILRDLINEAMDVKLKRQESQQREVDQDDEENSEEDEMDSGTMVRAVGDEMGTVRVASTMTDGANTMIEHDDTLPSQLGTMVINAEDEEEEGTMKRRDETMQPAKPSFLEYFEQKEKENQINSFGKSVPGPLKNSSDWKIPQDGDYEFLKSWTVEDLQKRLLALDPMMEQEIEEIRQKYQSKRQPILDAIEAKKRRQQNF
Outline: as §1

PAK6 = target: T6, PAK6 (Homo sapiens, UniProt Q9NQU5)
T6 construct: purchased Reaction Biology Corp
T6 sequence (Q9NQU5 whole entry): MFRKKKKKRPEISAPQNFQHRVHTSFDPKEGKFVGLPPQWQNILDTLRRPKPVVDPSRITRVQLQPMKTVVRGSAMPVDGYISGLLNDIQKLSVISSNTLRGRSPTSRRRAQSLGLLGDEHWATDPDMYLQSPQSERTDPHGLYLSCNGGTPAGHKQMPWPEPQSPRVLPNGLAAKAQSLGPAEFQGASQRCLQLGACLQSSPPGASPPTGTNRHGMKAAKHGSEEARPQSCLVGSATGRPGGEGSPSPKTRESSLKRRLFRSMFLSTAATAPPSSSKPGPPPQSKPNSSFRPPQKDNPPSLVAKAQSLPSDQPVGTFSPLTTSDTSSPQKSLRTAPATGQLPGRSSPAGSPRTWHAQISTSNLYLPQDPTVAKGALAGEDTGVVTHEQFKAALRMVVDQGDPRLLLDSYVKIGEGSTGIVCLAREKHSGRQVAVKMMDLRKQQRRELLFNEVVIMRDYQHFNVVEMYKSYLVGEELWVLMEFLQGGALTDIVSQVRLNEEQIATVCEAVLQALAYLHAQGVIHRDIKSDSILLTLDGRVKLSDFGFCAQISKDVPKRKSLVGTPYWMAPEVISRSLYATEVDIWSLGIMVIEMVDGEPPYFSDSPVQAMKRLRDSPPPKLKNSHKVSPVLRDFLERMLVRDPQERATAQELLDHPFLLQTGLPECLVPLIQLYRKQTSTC
Outline: as §1

TYK2 = target: T7, TYK2 (Homo sapiens, UniProt P29597)
T7 construct: purchased Reaction Biology Corp
T7 sequence (P29597 whole entry): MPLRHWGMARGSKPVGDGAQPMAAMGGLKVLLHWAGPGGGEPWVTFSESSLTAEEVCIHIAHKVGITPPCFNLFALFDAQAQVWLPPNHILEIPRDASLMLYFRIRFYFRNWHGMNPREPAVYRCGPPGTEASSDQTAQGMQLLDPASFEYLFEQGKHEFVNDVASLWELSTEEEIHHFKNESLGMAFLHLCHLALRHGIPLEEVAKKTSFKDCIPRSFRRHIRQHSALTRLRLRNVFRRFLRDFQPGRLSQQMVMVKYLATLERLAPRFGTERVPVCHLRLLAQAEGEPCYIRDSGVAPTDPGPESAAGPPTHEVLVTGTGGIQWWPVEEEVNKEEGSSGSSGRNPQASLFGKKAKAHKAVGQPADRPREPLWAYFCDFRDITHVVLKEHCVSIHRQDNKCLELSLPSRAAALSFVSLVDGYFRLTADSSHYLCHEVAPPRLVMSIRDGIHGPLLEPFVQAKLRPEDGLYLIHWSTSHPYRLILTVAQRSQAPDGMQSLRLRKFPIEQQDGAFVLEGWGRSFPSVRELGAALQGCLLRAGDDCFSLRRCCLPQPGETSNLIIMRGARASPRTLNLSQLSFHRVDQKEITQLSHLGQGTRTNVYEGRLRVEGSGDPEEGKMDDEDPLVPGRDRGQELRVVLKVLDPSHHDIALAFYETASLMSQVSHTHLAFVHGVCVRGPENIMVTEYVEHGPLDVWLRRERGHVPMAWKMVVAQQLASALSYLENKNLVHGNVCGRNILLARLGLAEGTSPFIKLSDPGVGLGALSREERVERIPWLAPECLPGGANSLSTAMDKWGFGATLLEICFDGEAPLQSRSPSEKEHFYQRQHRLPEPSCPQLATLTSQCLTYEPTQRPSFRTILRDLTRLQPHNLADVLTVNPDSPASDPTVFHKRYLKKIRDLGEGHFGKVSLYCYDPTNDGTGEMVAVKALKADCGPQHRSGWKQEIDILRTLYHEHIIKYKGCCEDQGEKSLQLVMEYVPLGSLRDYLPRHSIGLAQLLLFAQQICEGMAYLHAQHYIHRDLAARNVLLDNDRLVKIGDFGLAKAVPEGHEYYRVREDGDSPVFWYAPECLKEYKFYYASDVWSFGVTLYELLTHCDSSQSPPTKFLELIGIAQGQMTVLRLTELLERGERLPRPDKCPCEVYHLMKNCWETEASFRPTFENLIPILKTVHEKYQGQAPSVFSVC
Outline: as §1

[1] = read-out: % Enzyme Activity (relative to DMSO controls) Run 1
[2] = read-out: % Enzyme Activity (relative to DMSO controls) Run 2

Q: With C=CC(=O)Nc1cccc(Nc2nc(Nc3ccc(OCCOC)c(F)c3)ncc2F)c1 [Compound 2] as the compound, how does the inhibition at 3 µM (CDK2/cyclin A) read?
A: The inhibition at 3 µM was 13.7%.

Q: And the remaining activity at 3 µM (CDK2/cyclin A; [1])?
A: The remaining activity at 3 µM was 85.8%.

Q: What about the remaining activity at 3 µM (CDK2/cyclin A; [2]) of the same compound?
A: The remaining activity at 3 µM was 86.9%.

Q: What about the inhibition at 3 µM (CDK6/cyclin D1) of the same compound?
A: Its inhibition at 3 µM is -0.92%.

Q: And the remaining activity at 3 µM (CDK6/cyclin D1; [1])?
A: Its remaining activity at 3 µM is 101%.

Q: What about the remaining activity at 3 µM (CDK6/cyclin D1; [2]) of the same compound?
A: Its remaining activity at 3 µM is 100%.

Q: What about the inhibition at 3 µM (EGFR) of the same compound?
A: Its inhibition at 3 µM is 80.3%.

Q: And the remaining activity at 3 µM (EGFR; [1])?
A: The remaining activity at 3 µM was 19.2%.

Q: What about the remaining activity at 3 µM (EGFR; [2]) of the same compound?
A: Its remaining activity at 3 µM is 20.2%.

Q: And the inhibition at 3 µM (EPHB3)?
A: Its inhibition at 3 µM is 1.31%.

Q: What about the remaining activity at 3 µM (EPHB3; [1]) of the same compound?
A: Its remaining activity at 3 µM is 99.2%.

Q: And the remaining activity at 3 µM (EPHB3; [2])?
A: The remaining activity at 3 µM was 98.2%.

Q: And the inhibition at 3 µM (MST1/STK4)?
A: Its inhibition at 3 µM is 30.6%.

Q: And the remaining activity at 3 µM (MST1/STK4; [1])?
A: Its remaining activity at 3 µM is 70.2%.

Q: What about the remaining activity at 3 µM (MST1/STK4; [2]) of the same compound?
A: The remaining activity at 3 µM was 68.7%.

Q: What about the inhibition at 3 µM (PAK6) of the same compound?
A: The inhibition at 3 µM was 18%.

Q: What about the remaining activity at 3 µM (PAK6; [1]) of the same compound?
A: Its remaining activity at 3 µM is 79.3%.

Q: And the remaining activity at 3 µM (PAK6; [2])?
A: The remaining activity at 3 µM was 84.8%.

Q: And the inhibition at 3 µM (TYK2)?
A: The inhibition at 3 µM was 52.6%.

Q: What about the remaining activity at 3 µM (TYK2; [1]) of the same compound?
A: The remaining activity at 3 µM was 48.2%.

Q: And the remaining activity at 3 µM (TYK2; [2])?
A: The remaining activity at 3 µM was 46.6%.
